The source made the active and inactive calls. No cut-off for these calls is given here.
What was measured:
MCF7 [1] = experiment: Growth inhibition of Homo sapiens (human) MCF7 cells at 15 ug/ml after 48 hr by MTT assay relative to control; format: functional; details: for inhibition of growth at 15 µg/mL: MCF7, 48 h, read-out: GI
MCF7 [2] = experiment: Growth inhibition of Homo sapiens (human) MCF7 cells at 30 ug/ml after 48 hr by MTT assay relative to control; format: functional; details: MCF7, 48 h, read-out: GI
MCF7 [3] = experiment: Growth inhibition of Homo sapiens (human) MCF7 cells after 48 hr by MTT assay; format: functional, cell-based
MCF7 [4] = experiment: Growth inhibition of Homo sapiens (human) MCF7 cells at 7.5 ug/ml after 48 hr by MTT assay relative to control; format: functional; details: for inhibition of growth at 7.5 µg/mL: MCF7, 48 h, read-out: GI
MCF7 [5] = experiment: Growth inhibition of Homo sapiens (human) MCF7 cells at 60 ug/ml after 48 hr by MTT assay relative to control; format: functional; details: MCF7, 48 h, read-out: GI
[6] = Homo sapiens, MCF7, 48 h, read-out: IC50

| Structure (SMILES) | inhibition of growth at 15 µg/mL (MCF7 [1]) | inhibition of growth at 30 µg/mL (MCF7 [2]) | IC50 (MCF7 [3]; [6]) | inhibition of growth at 7.5 µg/mL (MCF7 [4]) | inhibition of growth at 60 µg/mL (MCF7 [5]) | growth inhibition (GI) (MCF7 [1]) | IC50 (MCF7 [3]; mcf7) | growth inhibition (GI) (MCF7 [4]) |
| --- | --- | --- | --- | --- | --- | --- | --- | --- |
| Cc1cccc2c1OCN(c1ccc3oc(-c4ccccc4)cc(=O)c3c1)C2 | 60.9% | 72.4% | 14.3 µM | 30.4% | 85.1% |  |  |  |
| COc1cc2c(c(OC)c1)OCN(c1ccc3oc(-c4ccccc4)cc(=O)c3c1)C2 | 60% | 79% | 8.01 µM | 48.9% | 99.1% |  |  |  |
| COc1cccc2c1OCN(c1ccc3oc(-c4ccccc4)cc(=O)c3c1)C2 | 54% | 67.8% | 17 µM | 32.5% | 91.9% |  |  |  |
| O=c1cc(-c2ccccc2)oc2ccc(N3COc4c(cccc4[N+](=O)[O-])C3)cc12 | 55.9% | 61.9% | 28.4 µM | 8.2% | 72.9% |  |  |  |
| Cc1cc(C)c2c(c1)CN(c1ccc3c(=O)cc(-c4ccccc4)oc3c1)CO2 |  | 26.8% | 61.9 µM | 11.2% | 48.4% | inactive |  |  |
| O=c1cc(-c2ccccc2)oc2ccc(N3COc4ccccc4C3)cc12 | 34% | 68.5% | 27.5 µM | 8.7% | 92.7% |  |  |  |
| Cc1ccc2c(c1)CN(c1ccc3oc(-c4ccccc4)cc(=O)c3c1)CO2 | 31% | 56.9% | 29.8 µM | 16.5% | 79.5% |  |  |  |
| O=c1cc(-c2ccccc2)oc2cc(N3COc4c(Br)cc(Br)cc4C3)ccc12 | 1.64% | 11.1% |  | 1.48% | 26.5% |  | Not Active |  |
| O=c1cc(-c2ccccc2)oc2cc(N3COc4c(cccc4[N+](=O)[O-])C3)ccc12 | 1.96% | 5.65% |  |  | 15.7% |  | Not Active | inactive |
| O=c1cc(-c2ccccc2)oc2ccc(N3COc4c(Br)cc(Br)cc4C3)cc12 | 13.6% | 16.1% |  | 6.54% | 34.5% |  | Not Active |  |
| O=c1cc(-c2ccccc2)oc2ccc(N3COc4c(Br)cccc4C3)cc12 | 37.8% | 71.6% | 19.6 µM |  | 81.8% |  |  | inactive |
| COc1cccc2c1C(=O)c1c(O)c3c(c(O)c1C2=O)C[C@@](O)(C(=O)CO)C[C@@H]3O[C@H]1C[C@H](N)[C@H](O)[C@H](C)O1 [DOXORUBICIN] | 70.3% | 88.9% | 7.2 µM | 50.8% | 99.5% |  |  |  |
| O=c1cc(-c2ccccc2)oc2ccc(N3COc4c(Cl)cc(Cl)cc4C3)cc12 | 61.3% | 74% | 12 µM | 32.8% | 80.3% |  |  |  |
| O=c1cc(-c2ccccc2)oc2cc(N3COc4c(Br)cccc4C3)ccc12 | 5.64% | 7.89% |  | 2.21% | 19.5% |  | Not Active |  |
| O=c1cc(-c2ccccc2)oc2cc(N3COc4ccccc4C3)ccc12 | 3.89% | 12.7% |  | 2.65% | 19.3% |  | Not Active |  |
| O=c1cc(-c2ccccc2)oc2cc(N3COc4c(Cl)cc(Cl)cc4C3)ccc12 | 11.8% | 34.6% | 44.5 µM |  | 68.8% |  |  | inactive |
| Cc1cccc2c1OCN(c1ccc3c(=O)cc(-c4ccccc4)oc3c1)C2 | 54.9% | 57.8% | 14.9 µM | 43.9% | 66.6% |  |  |  |
| COc1cc2c(c(OC)c1)OCN(c1ccc3c(=O)cc(-c4ccccc4)oc3c1)C2 | 62.9% | 75.9% | 12.1 µM | 45.8% | 88.9% |  |  |  |

Reference: ChEMBL document CHEMBL3046905, “Synthesis, biological evaluation and molecular docking studies of 1,3-benzoxazine derivatives as potential anticancer agents” (Med Chem Res, 2013)
